The target of test [1] is T1, Protein cereblon/Chromatin remodeling regulator CECR2 (Homo sapiens) (UniProt Q9BXF3+Q96SW2). As to the kind of experiment: PROTAC activity at human CECR2/CRBN assessed as degradation of protein by measuring unmodified protein at 10 uM by fluorescence-coupled CRBN-based ubiquitination assay.
A short description of test [2]: PROTAC activity at human BRD4 BD1/CRBN assessed as ubiquitination level by measuring unmodified protein by […].
Test [3] concerns the target T2, Protein cereblon/Nucleosome-remodeling factor subunit BPTF (Homo sapiens, UniProt Q12830+Q96SW2). The test can be described thus: PROTAC activity at human BPTF/CRBN assessed as ubiquitination level by measuring unmodified protein by fluorescence-coupled CRBN-based ubiquitination assay.
Target sequence in this assay (Q96SW2 whole entry, looked up, other chains not shown): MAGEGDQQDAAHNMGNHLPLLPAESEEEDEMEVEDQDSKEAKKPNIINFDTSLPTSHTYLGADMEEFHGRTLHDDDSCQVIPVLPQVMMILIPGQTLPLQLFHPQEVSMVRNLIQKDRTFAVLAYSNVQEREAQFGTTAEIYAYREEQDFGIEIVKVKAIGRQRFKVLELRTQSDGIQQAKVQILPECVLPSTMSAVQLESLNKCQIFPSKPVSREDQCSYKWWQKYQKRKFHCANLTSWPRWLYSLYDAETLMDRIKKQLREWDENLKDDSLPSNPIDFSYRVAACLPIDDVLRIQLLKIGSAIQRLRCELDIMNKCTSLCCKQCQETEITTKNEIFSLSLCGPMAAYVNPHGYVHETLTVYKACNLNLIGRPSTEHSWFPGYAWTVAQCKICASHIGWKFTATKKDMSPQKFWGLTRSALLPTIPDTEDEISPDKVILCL
Test [4] concerns the target T1, Protein cereblon/Chromatin remodeling regulator CECR2 (Homo sapiens). The test can be described thus: PROTAC activity at human CECR2/CRBN assessed as degradation of protein by measuring unmodified protein at 20 uM by fluorescence-coupled CRBN-based ubiquitination assay.
For test [5], the target named is T2, Protein cereblon/Nucleosome-remodeling factor subunit BPTF. As to the kind of experiment: PROTAC activity at human BPTF/CRBN assessed as degradation of protein by measuring unmodified protein by fluorescence-coupled CRBN-based ubiquitination assay.
Target sequence in this assay (Q96SW2 whole entry, other chains not shown): as the sequence (Q96SW2 whole entry, looked up, other chains not shown) above
Test [6] in a line: Inhibition of human BPTF BRD by HTRF assay.
Test [7] is described as follows: Binding affinity to human BPTF BRD assessed as dissociation constant.
The target in test [8] is T2, Protein cereblon/Nucleosome-remodeling factor subunit BPTF. As to the kind of experiment: PROTAC activity at human BPTF/CRBN in human MV4-11 cells assessed as degradation of protein measured after 24 hrs by immunoblotting analysis. In kind it is cell-based.
Target sequence in this assay (Q96SW2 whole entry, looked up, other chains not shown): as above
Test [9] has as its target T1, Protein cereblon/Chromatin remodeling regulator CECR2 (Homo sapiens). As to the kind of experiment: PROTAC activity at human CECR2/CRBN in human MV4-11 cells assessed as degradation of protein at 20 uM measured after 24 hrs by immunoblotting analysis. Format: cell-based.
For test [10], the target named is Protein cereblon/Bromodomain-containing protein 9 (Homo sapiens) (UniProt Q9H8M2+Q96SW2). The test can be described thus: PROTAC activity at human BRD9/CRBN in human MV4-11 cells assessed as degradation of protein at 20 uM measured after 24 hrs by immunoblotting analysis. In kind it is cell-based.
Sequence of Protein cereblon/Bromodomain-containing protein 9 (Homo sapiens) (Q96SW2 whole entry, looked up): as the sequence (Q96SW2 whole entry, looked up, other chains not shown) above
Sequence of Protein cereblon/Bromodomain-containing protein 9 (Homo sapiens) (Q9H8M2 whole entry, looked up): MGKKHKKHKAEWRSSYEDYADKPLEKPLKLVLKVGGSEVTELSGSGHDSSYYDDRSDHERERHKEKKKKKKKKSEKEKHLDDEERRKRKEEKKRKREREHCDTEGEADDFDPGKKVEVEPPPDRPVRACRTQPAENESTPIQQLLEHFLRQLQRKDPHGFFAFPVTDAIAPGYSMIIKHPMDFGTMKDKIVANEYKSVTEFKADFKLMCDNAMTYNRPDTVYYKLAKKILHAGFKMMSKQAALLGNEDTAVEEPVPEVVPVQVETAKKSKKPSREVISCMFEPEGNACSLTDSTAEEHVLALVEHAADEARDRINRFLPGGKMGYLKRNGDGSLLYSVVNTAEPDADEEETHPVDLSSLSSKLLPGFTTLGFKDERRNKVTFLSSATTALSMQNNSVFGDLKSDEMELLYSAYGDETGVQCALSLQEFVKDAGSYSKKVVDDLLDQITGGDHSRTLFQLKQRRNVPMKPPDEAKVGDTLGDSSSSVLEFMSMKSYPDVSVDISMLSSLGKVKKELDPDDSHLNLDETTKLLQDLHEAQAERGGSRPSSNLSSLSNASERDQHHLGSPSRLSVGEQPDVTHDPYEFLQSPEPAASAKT
Test [11] deals with Protein cereblon/Histone acetyltransferase KAT2B (Homo sapiens) (UniProt Q92831+Q96SW2). As to the kind of experiment: PROTAC activity at human PCAF/CRBN in human MV4-11 cells assessed as degradation of protein at 20 uM measured after 24 hrs by immunoblotting analysis. Format: cell-based.
Sequence of Protein cereblon/Histone acetyltransferase KAT2B (Homo sapiens) (Q92831 whole entry, looked up): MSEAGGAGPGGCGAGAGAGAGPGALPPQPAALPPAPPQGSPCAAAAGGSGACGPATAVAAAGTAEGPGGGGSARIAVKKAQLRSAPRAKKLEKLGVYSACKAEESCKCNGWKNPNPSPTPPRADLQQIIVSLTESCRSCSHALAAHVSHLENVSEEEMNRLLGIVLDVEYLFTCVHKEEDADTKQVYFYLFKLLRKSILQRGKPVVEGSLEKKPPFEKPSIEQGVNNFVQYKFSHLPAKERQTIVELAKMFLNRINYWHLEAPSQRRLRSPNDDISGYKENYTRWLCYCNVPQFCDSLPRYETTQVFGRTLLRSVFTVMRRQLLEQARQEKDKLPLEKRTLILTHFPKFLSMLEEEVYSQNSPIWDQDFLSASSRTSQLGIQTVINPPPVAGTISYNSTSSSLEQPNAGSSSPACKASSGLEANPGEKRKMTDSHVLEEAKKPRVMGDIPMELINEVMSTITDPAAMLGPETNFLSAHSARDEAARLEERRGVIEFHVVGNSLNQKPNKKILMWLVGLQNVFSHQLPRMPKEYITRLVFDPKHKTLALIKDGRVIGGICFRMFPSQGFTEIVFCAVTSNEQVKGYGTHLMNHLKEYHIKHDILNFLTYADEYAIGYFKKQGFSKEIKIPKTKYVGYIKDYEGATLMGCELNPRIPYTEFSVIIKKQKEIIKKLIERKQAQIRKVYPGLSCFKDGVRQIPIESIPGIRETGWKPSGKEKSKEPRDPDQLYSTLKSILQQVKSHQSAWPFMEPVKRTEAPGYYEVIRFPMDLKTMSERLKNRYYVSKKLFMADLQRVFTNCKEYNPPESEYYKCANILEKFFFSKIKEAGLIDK
Sequence of Protein cereblon/Histone acetyltransferase KAT2B (Homo sapiens) (Q96SW2 whole entry, looked up): as the sequence (Q96SW2 whole entry, looked up, other chains not shown) above
The test system of test [12] is MV4-11. As to the kind of experiment: Antiproliferative activity against human MV4-11 cells assessed as cell viability measured after 6 days by CellTiter-Glo kit. Format: functional, cell-based. The following applies: MV4-11, 144 h.
In test [13] the target is T2, Protein cereblon/Nucleosome-remodeling factor subunit BPTF. The test can be described thus: PROTAC activity at human BPTF/CRBN in human MV4-11 cells assessed as degradation of protein pretreated with MLN4924 for 12hrs followed by measured after 24 hrs of compound treatment by immunoblotting analysis. In kind it is cell-based.
Target sequence in this assay (Q96SW2 whole entry, looked up, other chains not shown): as above
Test [14] shares this target. The test can be described thus: PROTAC activity at human BPTF/CRBN in human MV4-11 cells assessed as degradation of protein measured after 24 hrs in presence of pomalidomide by immunoblotting analysis. Format: cell-based.
Target sequence in this assay (Q96SW2 whole entry, looked up, other chains not shown): as above
Test [15] shares this target. As to the kind of experiment: PROTAC activity at human BPTF/CRBN assessed as ubiquitination level by measuring unmodified protein in presence of pomalidomide by fluorescence-coupled CRBN-based ubiquitination assay.
Target sequence in this assay (Q96SW2 whole entry, looked up, other chains not shown): as above
The target is the same in test [16]. The test can be described thus: PROTAC activity at human BPTF/CRBN in human MV4-11 cells assessed as degradation of protein at 5 uM measured after 24 hrs by immunoblotting analysis. Format: cell-based.
Target sequence in this assay (Q96SW2 whole entry, looked up, other chains not shown): as above

Structures are written as SMILES. Activity calls are given as the source filed them. The rule behind the calls is not given here.

T1 sequence (Q96SW2 whole entry, looked up): as the sequence (Q96SW2 whole entry, looked up, other chains not shown) above
T1 sequence (Q9BXF3 whole entry, looked up): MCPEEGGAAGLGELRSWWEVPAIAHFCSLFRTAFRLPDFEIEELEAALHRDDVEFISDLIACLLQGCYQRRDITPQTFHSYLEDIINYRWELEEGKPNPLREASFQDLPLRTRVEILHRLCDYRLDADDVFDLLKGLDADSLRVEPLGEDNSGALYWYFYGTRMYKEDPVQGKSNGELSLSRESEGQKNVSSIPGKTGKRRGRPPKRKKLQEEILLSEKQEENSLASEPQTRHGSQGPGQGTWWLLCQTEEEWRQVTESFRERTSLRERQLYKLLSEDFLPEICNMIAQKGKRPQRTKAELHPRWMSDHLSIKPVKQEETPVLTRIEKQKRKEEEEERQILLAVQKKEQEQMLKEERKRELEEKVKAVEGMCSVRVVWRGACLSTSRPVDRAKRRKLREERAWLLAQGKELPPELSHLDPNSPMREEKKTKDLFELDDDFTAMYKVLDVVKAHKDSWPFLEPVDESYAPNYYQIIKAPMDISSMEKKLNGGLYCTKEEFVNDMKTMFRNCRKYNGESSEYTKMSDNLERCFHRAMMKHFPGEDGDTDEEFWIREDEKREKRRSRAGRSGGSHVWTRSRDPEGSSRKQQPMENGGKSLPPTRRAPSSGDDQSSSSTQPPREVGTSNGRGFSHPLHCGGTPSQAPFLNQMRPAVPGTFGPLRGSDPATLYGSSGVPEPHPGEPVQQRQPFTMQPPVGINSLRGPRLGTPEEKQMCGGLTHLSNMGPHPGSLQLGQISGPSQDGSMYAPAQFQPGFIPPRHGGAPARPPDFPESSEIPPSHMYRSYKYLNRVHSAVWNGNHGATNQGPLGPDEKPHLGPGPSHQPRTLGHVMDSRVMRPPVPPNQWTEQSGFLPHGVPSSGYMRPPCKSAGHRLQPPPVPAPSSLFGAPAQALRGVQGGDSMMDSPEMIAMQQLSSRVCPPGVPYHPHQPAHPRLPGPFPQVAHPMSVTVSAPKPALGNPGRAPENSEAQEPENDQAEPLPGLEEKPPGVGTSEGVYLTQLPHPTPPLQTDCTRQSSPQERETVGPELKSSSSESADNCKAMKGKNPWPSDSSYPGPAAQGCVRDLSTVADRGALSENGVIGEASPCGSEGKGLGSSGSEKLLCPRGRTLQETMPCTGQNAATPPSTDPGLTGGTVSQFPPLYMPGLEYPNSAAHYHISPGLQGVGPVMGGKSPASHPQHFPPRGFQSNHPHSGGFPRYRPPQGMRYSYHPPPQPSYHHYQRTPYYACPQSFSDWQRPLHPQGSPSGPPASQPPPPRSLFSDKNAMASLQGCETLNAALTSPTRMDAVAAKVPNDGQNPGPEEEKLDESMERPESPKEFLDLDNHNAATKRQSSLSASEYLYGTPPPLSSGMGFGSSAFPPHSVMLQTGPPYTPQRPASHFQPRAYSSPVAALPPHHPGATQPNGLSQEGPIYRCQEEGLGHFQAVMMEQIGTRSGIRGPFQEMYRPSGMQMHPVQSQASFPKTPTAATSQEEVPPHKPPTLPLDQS

For `CCCNc1cc(-c2ccc(OCCCN3CCN(C(=O)CCCCNc4cccc5c4C(=O)N(C4CCC(=O)NC4=O)C5=O)CC3)c(C#N)c2)nc(S(C)(=O)=O)n1` (stereo unspecified), in [1], the outcome was inactive.

In the case of `Cc1sc2c(c1C)C(c1ccc(Cl)cc1)=N[C@@H](CC(=O)Nc1ccc(OCCOCCOCCOCCNc3cccc4c3C(=O)N(C3CCC(=O)NC3=O)C4=O)cc1)c1nnc(C)n1-2` (stereo partly specified), in [2], the IC50 was 1250 nM.

As for `Cc1sc2c(c1C)C(c1ccc(Cl)cc1)=N[C@@H](CC(=O)NCCNc1cccc3c1C(=O)N(C1CCC(=O)NC1=O)C3=O)c1nnc(C)n1-2` (stereo partly specified), the IC50 in test [2] was 280 nM.

Regarding `COC(=O)C[C@@H]1N=C(c2ccc(Cl)cc2)c2c(sc(C(=O)NCCCCCCCCNC(=O)COc3cccc4c3C(=O)N(C3CCC(=O)NC3=O)C4=O)c2C)-n2c(C)nnc21` (stereo partly specified), in test [2], the IC50 was determined as 1150 nM.

Turning to `CCCNc1cc(-c2ccc(OCCCN3CCN(C(=O)C4CCN(c5cccc6c5C(=O)N(C5CCC(=O)NC5=O)C6=O)CC4)CC3)c(C#N)c2)nc(S(C)(=O)=O)n1` (stereo unspecified), the result in test [3] and in [4] was Active.

`CCCNc1cc(-c2ccc(OCCCN3CCN(C(=O)COc4cccc5c4C(=O)N(C4CCC(=O)NC4=O)C5=O)CC3)c(C#N)c2)nc(S(C)(=O)=O)n1` (stereo unspecified): the figures for the IC50 in test [2], in [6] and in test [12] were 680 nM, 150 nM and 2710 nM, respectively. The result in test [3] was Active. Also, the DC50 in test [5] was found to be 35.1 nM. Also, the result in test [4], in test [9], in [10], in [11], in test [13] and in test [14] was inactive. Further, the result in test [15] was inactive. Further, the Kd in test [7] is 310 nM. Besides, the Activity result in test [8] is “Dose-dependent-effect”.

As for `CCCNc1cc(-c2ccc(OCCCN3CCN(C(=O)C4CN(c5cccc6c5C(=O)N(C5CCC(=O)NC5=O)C6=O)C4)CC3)c(C#N)c2)nc(S(C)(=O)=O)n1` (stereo unspecified), in test [3], the result was Active. In addition, in test [5], the DC50 worked out at 44.6 nM. Further, the result in [4] was inactive.

Take `CCCNc1cc(-c2ccc(OCCCN3CCN(C(=O)COc4cccc5c4C(=O)N(C4CCC(=O)N(C)C4=O)C5=O)CC3)c(C#N)c2)nc(S(C)(=O)=O)n1` (stereo unspecified): the result in test [3] and in [16] was inactive.

As for `CCCNc1cc(-c2ccc(OCCCN3CCN(C(=O)CCCCCOc4cccc5c4C(=O)N(C4CCC(=O)NC4=O)C5=O)CC3)c(C#N)c2)nc(S(C)(=O)=O)n1` (stereo unspecified), in test [1], the result was inactive.

The values are drawn from ChEMBL document CHEMBL6177990, “Fluorescence-Coupled Ubiquitination Assay as a High-Throughput Screening Strategy for Novel Cereblon Degraders” (J Med Chem, 2025).
